{"source": "patent US20250352520A1", "about": "“USE OF DEXPRAMIPEXOLE FOR THE TREATMENT OF EOSINOPHILIC COPD” (Areteia Therapeutics, Inc., priority 2024, published 2025)", "key": {"[1]": {"conditions": "for COPD Assessment - Total Score, CFB (Change from baseline), Max / COPD Assessment - Total Score, CFB (Change from baseline), Mean ± SD / COPD Assessment - Total Score, CFB (Change from baseline), Median / COPD Assessment - Total Score, CFB (Change from baseline), Min / COPD Assessment - Total Score, CFB (Change from baseline), Q1 / COPD Assessment - Total Score, CFB (Change from baseline), Q3 / COPD Assessment - Total Score, Observed, Max / COPD Assessment - Total Score, Observed, Mean ± SD / COPD Assessment - Total Score, Observed, Median / COPD Assessment - Total Score, Observed, Min / COPD Assessment - Total Score, Observed, Q1 / COPD Assessment - Total Score, Observed, Q3: Week 16, 150 mg BID", "text": "The CAT is a participant-completed instrument that can quantify the impact of COPD on the participant's health. It complements existing approaches to assessing COPD, such as FEV1 measurement.\nThe CAT has a scoring range of 0-40 (0 to 5 on 8 questions) with higher numbers indicating more severe symptoms."}, "[2]": {"conditions": "150 mg BID; participants with ALS and EADs; cited from earlier work"}, "[3]": {"conditions": "<50% AEC reduction at Week 16 (N = 4)"}, "[4]": {"conditions": ">=50% AEC reduction at Week 16 (N = 3)"}}, "note": "Like-named read-outs stand apart in the source and are kept apart here.", "data": [{"smiles": "CCCN[C@@H]1CCc2nc(N)sc2C1", "note": "[Dexpramipexole, (6R)-2-amino-4,5,6,7-tetrahydro-6-(propylamino)benzothiazole]", "values": [{"measurement": "CAT total score, decrease compared to baseline", "setting": "[1]; AECR≥0.5 patients, week 16", "result": 8.7, "unit": "points"}, {"measurement": "COPD Assessment - Total Score, CFB (Change from baseline), Max", "setting": "[1]; [3]", "result": 0}, {"measurement": "COPD Assessment - Total Score, CFB (Change from baseline), Mean ± SD", "setting": "[1]; [3]", "result": "−1.8 ± 1.50"}, {"measurement": "COPD Assessment - Total Score, CFB (Change from baseline), Median", "setting": "[1]; [3]", "result": "−2.0"}, {"measurement": "COPD Assessment - Total Score, CFB (Change from baseline), Min", "setting": "[1]; [3]", "result": "−3"}, {"measurement": "COPD Assessment - Total Score, CFB (Change from baseline), Q1", "setting": "[1]; [3]", "result": "−3"}, {"measurement": "COPD Assessment - Total Score, CFB (Change from baseline), Q3", "setting": "[1]; [3]", "result": "−1"}, {"measurement": "COPD Assessment - Total Score, Observed, Max", "setting": "[1]; [3]", "result": 24}, {"measurement": "COPD Assessment - Total Score, Observed, Mean ± SD", "setting": "[1]; [3]", "result": "17.5 ± 8.27"}, {"measurement": "COPD Assessment - Total Score, Observed, Median", "setting": "[1]; [3]", "result": 20.0}, {"measurement": "COPD Assessment - Total Score, Observed, Min", "setting": "[1]; [3]", "result": 6}, {"measurement": "COPD Assessment - Total Score, Observed, Q1", "setting": "[1]; [3]", "result": 12}, {"measurement": "COPD Assessment - Total Score, Observed, Q3", "setting": "[1]; [3]", "result": 24}, {"measurement": "COPD Assessment - Total Score, CFB (Change from baseline), Max", "setting": "[1]; [4]", "result": "−8"}, {"measurement": "COPD Assessment - Total Score, CFB (Change from baseline), Mean ± SD", "setting": "[1]; [4]", "result": "−8.7 ± 1.15"}, {"measurement": "COPD Assessment - Total Score, CFB (Change from baseline), Median", "setting": "[1]; [4]", "result": "−8.0"}, {"measurement": "COPD Assessment - Total Score, CFB (Change from baseline), Min", "setting": "[1]; [4]", "result": "−10"}, {"measurement": "COPD Assessment - Total Score, CFB (Change from baseline), Q1", "setting": "[1]; [4]", "result": "−10"}, {"measurement": "COPD Assessment - Total Score, CFB (Change from baseline), Q3", "setting": "[1]; [4]", "result": "−8"}, {"measurement": "COPD Assessment - Total Score, Observed, Max", "setting": "[1]; [4]", "result": 23}, {"measurement": "COPD Assessment - Total Score, Observed, Mean ± SD", "setting": "[1]; [4]", "result": "16.3 ± 5.86"}, {"measurement": "COPD Assessment - Total Score, Observed, Median", "setting": "[1]; [4]", "result": 14.0}, {"measurement": "COPD Assessment - Total Score, Observed, Min", "setting": "[1]; [4]", "result": 12}, {"measurement": "COPD Assessment - Total Score, Observed, Q1", "setting": "[1]; [4]", "result": 12}, {"measurement": "COPD Assessment - Total Score, Observed, Q3", "setting": "[1]; [4]", "result": 23}, {"measurement": "safety profile", "setting": "[2]", "result": "favorable safety profile"}]}]}
